Source: publication PMC10600005 (Nature, 2023)

Target: T1, nuclease P1 (P1 nuclease) (Penicillium citrinum, UniProt P24289)
T1 construct: commercial enzyme (New England Biolabs)
T1 sequence (P24289 1-270): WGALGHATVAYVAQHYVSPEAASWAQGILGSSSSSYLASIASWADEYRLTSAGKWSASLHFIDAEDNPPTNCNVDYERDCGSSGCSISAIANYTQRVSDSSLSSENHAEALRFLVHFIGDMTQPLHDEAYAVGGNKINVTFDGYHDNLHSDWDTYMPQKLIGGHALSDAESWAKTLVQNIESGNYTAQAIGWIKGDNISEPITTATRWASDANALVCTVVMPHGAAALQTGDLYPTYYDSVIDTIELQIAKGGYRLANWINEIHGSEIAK
Experiment: HPLC product analysis
Format: biochemical
Conditions: 50 mM sodium acetate pH 5.5, 37 C, 1 h, 100 uM substrate

Compound: C[S+](CC[C@H](N)C(=O)O)C[C@H]1O[C@@H](n2cnc3c(N)ncnc32)[C@H](O)[C@@H]1OP(=O)(O)OC[C@H]1O[C@@H](n2cnc3c(N)ncnc32)[C@H](O)[C@@H]1O (some centres unmarked) [SAM-AMP]
- HPLC product analysis (partial degradation): we observed only partial degradation of SAM-AMP

Compound: Nc1ncnc2c1ncn2[C@@H]1O[C@H](COP(=O)(O)O[C@H]2[C@@H](O)[C@H](n3cnc4c(N)ncnc43)O[C@@H]2CSCC[C@H](N)C(=O)O)[C@@H](O)[C@H]1O [SAH-AMP]
- HPLC product analysis: SAH-AMP was completely degraded by nuclease P1
